From patent US20190304569A1, “DRUG TARGETING OF HUMAN INDOLEAMINE 2,3-DIOXYGENASE” (Albert Einstein College of Medicine, priority 2016, published 2019)

Molecular target: human indoleamine 2,3-dioxygenase (hIDO) (Homo sapiens, UniProt P14902)
Experiment: hIDO enzyme activity in solution studies (binding to the Si site)
Assay type: biochemical
Details: for effect of binding to the Si site on the enzyme activity: solution data
Description: The existence of the Si site in hIDO was first proposed by us in 2009 based on solution studies (8). […] It is notable that for decades MitoC has been widely used as a chemotherapy drug for several types of cancer (9).

Chain of human indoleamine 2,3-dioxygenase (hIDO) (P14902 whole entry): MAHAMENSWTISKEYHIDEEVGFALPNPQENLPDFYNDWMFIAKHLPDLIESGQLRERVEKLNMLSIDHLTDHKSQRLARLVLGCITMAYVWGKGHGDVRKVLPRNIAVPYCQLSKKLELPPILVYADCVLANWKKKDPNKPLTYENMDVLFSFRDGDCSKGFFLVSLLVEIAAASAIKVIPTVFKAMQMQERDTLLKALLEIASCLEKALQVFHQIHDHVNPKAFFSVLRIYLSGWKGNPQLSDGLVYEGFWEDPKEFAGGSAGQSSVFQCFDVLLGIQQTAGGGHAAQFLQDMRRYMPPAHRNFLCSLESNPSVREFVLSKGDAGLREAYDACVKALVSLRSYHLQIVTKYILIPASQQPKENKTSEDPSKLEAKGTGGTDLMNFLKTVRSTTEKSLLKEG

| Compound | effect of binding to the Si site on the enzyme activity | Ki (uncompetitive inhibition of hIDO by binding to the Si site) |
| --- | --- | --- |
| CO[C@@]12[C@H](COC(N)=O)C3=C(C(=O)C(C)=C(N)C3=O)N1C[C@@H]1N[C@@H]12 [MitoC, Mitomycin C] | inhibiting the enzyme activity | 25 µM |
| N[C@@H](Cc1c[nH]c2ccccc12)C(=O)O [Trp, tryptophan] | inhibits the enzyme activity | – |
